According to US20230091608A1, “COMPOUND AND DIAGNOSTIC SYSTEM COMPRISING SAID COMPOUND FOR THE GUSTATORY DETECTION OF INFLAMMATIONS IN THE ORAL CAVITY” (Julius-Maximilians-Universitaet Wuerzburg, priority 2019, published 2023):

system: aminopeptidase (AP); experiment: Cleavage of [Ia-X] constructs by aminopeptidase (AP), LC/MS for complete degradation; format: biochemical
Experimental: To trigger maximum gustatory perception, the last amino acid from the modified denatonium must also be removed by the aminopeptidase.
The resulting constructs were incubated with AP for 24 h and analyzed by LC/MS for complete degradation (Table 2).

| Detectable after 24 h incubation with AP | Compound |
| --- | --- |
| + | N[C@@H](CC(=O)O)C(=O)O [Aspartic acid] |
| + | NC(=O)C[C@H](N)C(=O)O [Asparagine] |
| − | N[C@@H](CCC(=O)O)C(=O)O [Glutamic acid] |
| − | N[C@@H](CS)C(=O)O [Cysteine] |
| + | CC(C)[C@H](N)C(=O)O [Valine] |
| − | N[C@@H](CO)C(=O)O [Serine] |
| − | N[C@@H](Cc1ccccc1)C(=O)O [Phenylalanine] |
| + | C[C@@H](O)[C@H](N)C(=O)O [Threonine] |
| + | CC[C@H](C)[C@H](N)C(=O)O [Isoleucine] |
| + | NCC(=O)O [Glycine] |
| − | CC(C)C[C@H](N)C(=O)O [Leucine] |
| − | CSCC[C@H](N)C(=O)O [Methionine] |
| + | Proline |
| + | N[C@@H](Cc1c[nH]cn1)C(=O)O [Histidine] |
| − | Alanine |
| + | NC(=O)CC[C@H](N)C(=O)O [Glutamine] |

| Compound | Detectable after 24 h incubation with AP |
| --- | --- |
| Arginine | − |
| Lysine | − |
| N[C@@H](Cc1c[nH]c2ccccc12)C(=O)O [Tryptophan] | + |
| Tyrosine | − |
